Converted amounts (≈) assume the structure as drawn.
Experiments:
[1] = system: Escherichia coli ATCC 9637; assay: series-dilution assay in the microtiter system, bacteriostasis; type: cell-based; conditions: ATCC9637, pH 6.7, read-out: Minimum inhibiting concentration
Experimental: (§1) 4-R-Spectinomycylamine of the formula I was tested in comparison with the known antibiotic spectinomycin with regard to its effectiveness against Staphylococcus aureus SG 511, Streptococcus aronson, Escherichia coli ATCC 9637, Pseudomonas aeruginosa, Serratia marcescens ATCC 13 880, Klebsiella pneumoniae ATCC 10 031, Proteus mirabilis and Proteus vulgaris, and with regard to acute toxicity.
(§2) For these tests the method of the series-dilution essay in the microtiter system was used. The substances were tested in a fluid medium with regard to bacteriostasis. The effectiveness of the bacteriostasis was tested at the following concentrations: 80, 40, 20, 10, 5, 2.5, 1.25, 0.6 and 0.3 μgm/ml. A bouillon consisting of 5 gm of peptone, 3 gm of meat extract, filled up to a volume of 1000 ml with distilled water served as nutriant; pH-value 6.7. The age of the primary cultures was 24 hours. The adjustment of the microorganism suspension was carried out with a photometer (according to Eppendorf) (diameter of the test tube 14 mm, filter 546 nm) by comparison with the turbidity of a barium sulfate comparison suspension produced by a suspension of barium sulfate which was prepared by addition of 3.0 ml of 1% barium chloride solution on 97 ml of 1% sulfuric acid. After the adjustment streptococcus aronson was diluted 1:150 and the remaining test microorganisms were further diluted with sodium chloride solution in the proportion of 1:1500.
(§3) 16 mgm of the test substance was weighed in 10 ml measuring flasks and filled up with the solvent until the mark was reached. The further dilution series was prepared with distilled water or with the respective solvent.
(§4) 0.2 ml of nutrient medium, 0.01 ml of the corresponding test substance dilution and 1 drop of the microorganism suspension were placed into the cavities of the microtiter plates and incubated for 18 to 20 hours at 37° C. A solvent control batch was always treated in like manner at the same time.
(§5) The reading was effected macroscopically, whereby the respective threshold concentration (=lowest still bacteriostatically effective concentration) was determined.

[2] = system: Klebsiella pneumoniae ATCC 10 031; assay: as above; type: cell-based; conditions: ATCC10, 18 to 20 hours at 37° C., pH 6.7, lowest still bacteriostatically effective concentration, read-out: Minimum inhibiting concentration
Experimental: as §1, §2, §3, §4, §5

Proteus mirabilis = assay: as above; type: cell-based; conditions: 18 to 20 hours at 37° C., pH 6.7, lowest still bacteriostatically effective concentration, read-out: Minimum inhibiting concentration
Experimental: as §1, §2, §3, §4, §5

Proteus vulgaris = assay: as above; type: cell-based; conditions: 18 to 20 hours at 37° C., pH 6.7, lowest still bacteriostatically effective concentration, read-out: Minimum inhibiting concentration
Experimental: as §1, §2, §3, §4, §5

Pseudomonas aeruginosa = assay: as above; type: cell-based; conditions: pH 6.7, read-out: Minimum inhibiting concentration
Experimental: as §1, §2, §3, §4, §5

[3] = system: Serratia marcescens ATCC 13 880; assay: as above; type: cell-based; conditions: ATCC13, pH 6.7, read-out: Minimum inhibiting concentration
Experimental: as §1, §2, §3, §4, §5

[4] = system: Staphylococcus aureus SG 511; assay: as above; type: cell-based; conditions: SG511, 18 to 20 hours at 37° C., pH 6.7, lowest still bacteriostatically effective concentration, read-out: Minimum inhibiting concentration
Experimental: as §1, §2, §3, §4, §5

Streptococcus aronson = assay: as above; type: cell-based; conditions: 18 to 20 hours at 37° C., pH 6.7, lowest still bacteriostatically effective concentration, read-out: Minimum inhibiting concentration
Experimental: as §1, §2, §3, §4, §5

[5] = antimicrobial activity (general statement, in vitro and in warm-blooded animals such as mice)

Row | SMILES | MIC [1] [µg/mL] | MIC [2] [µg/mL] | MIC (Proteus mirabilis) [µg/mL] | MIC (Proteus vulgaris) [µg/mL] | MIC (Pseudomonas aeruginosa) [µg/mL] | MIC [3] [µg/mL] | MIC [4] [µg/mL] | MIC (Streptococcus aronson) [µg/mL] | antimicrobial properties (in words) [5]
1 | CNC1C(O)C(NC)C2OC3(O)C(N)CC(C)OC3OC2C1O (centres unmarked) [4-R-Spectinomycylamine] | 20 (≈ 60 µM) | 10 (≈ 30 µM) | 10 (≈ 30 µM) | 5 (≈ 15 µM) | 40 (≈ 120 µM) | 10 (≈ 30 µM) | 5 (≈ 15 µM) | 5 (≈ 15 µM) | especially pronounced
2 | CN[C@@H]1[C@H](O)[C@H](NC)[C@H]2O[C@@]3(O)C(=O)C[C@@H](C)O[C@H]3O[C@@H]2[C@H]1O [Spectinomycin, spectinomycin, reference compound] | 40 (≈ 120 µM) | 20 (≈ 60.2 µM) | 10 (≈ 30.1 µM) | 10 (≈ 30.1 µM) | 160 (≈ 481 µM) | 20 (≈ 60.2 µM) | 20 (≈ 60.2 µM) | 10 (≈ 30.1 µM) | –

From patent publication US4173647A, “4-Spectinomycylamine and salts thereof” (Boehringer Ingelheim GmbH, priority 1977, dated 1979)
